The results in this text go back to ChEMBL document CHEMBL4725338, “Discovery of novel histone lysine methyltransferase G9a/GLP (EHMT2/1) inhibitors: Design, synthesis, and structure-activity relationships of 2,4-diamino-6-methylpyrimidines” (Bioorg Med Chem Lett, 2020).

A short description of series [1]: Aqueous solubility of the compound in pH 6.8 JP2 fluid. The class given is physicochemical.
Series [2] addresses T1, Histone-lysine N-methyltransferase EHMT1 (Homo sapiens, UniProt Q9H9B1).
T1 sequence (Q9H9B1 whole entry): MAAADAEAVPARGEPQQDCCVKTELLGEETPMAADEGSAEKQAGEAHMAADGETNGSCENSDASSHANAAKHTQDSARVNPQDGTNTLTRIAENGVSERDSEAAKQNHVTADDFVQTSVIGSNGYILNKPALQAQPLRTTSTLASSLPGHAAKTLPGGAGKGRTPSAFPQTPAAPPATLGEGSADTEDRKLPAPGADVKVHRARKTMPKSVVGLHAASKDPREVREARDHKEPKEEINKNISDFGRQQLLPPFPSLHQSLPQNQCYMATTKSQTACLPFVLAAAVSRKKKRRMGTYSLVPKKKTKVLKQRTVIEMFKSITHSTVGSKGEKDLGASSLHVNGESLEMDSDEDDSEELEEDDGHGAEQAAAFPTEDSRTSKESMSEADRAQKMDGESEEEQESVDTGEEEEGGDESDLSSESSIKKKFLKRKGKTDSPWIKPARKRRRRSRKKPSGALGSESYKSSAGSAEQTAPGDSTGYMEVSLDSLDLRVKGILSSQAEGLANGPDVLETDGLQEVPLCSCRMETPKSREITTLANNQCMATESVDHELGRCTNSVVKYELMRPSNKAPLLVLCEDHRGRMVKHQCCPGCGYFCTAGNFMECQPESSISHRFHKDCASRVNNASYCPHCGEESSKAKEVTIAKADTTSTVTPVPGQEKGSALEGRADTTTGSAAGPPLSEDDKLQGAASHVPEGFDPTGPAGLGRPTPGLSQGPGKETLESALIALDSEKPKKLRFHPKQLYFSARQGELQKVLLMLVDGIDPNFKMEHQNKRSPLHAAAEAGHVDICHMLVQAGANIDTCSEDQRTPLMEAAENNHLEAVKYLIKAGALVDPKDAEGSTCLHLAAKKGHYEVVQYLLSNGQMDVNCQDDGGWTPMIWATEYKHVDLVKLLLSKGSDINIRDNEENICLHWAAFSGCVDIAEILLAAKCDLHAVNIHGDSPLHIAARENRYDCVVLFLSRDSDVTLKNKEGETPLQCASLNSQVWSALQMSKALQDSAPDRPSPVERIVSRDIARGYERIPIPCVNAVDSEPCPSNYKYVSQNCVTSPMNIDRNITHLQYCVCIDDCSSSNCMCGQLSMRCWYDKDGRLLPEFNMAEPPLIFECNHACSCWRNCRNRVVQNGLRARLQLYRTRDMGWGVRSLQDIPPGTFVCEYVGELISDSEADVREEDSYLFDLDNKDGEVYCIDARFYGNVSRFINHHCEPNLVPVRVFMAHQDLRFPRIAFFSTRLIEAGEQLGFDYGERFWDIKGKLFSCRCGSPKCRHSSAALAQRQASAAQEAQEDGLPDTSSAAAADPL
The series can be described thus: Inhibition of GLP (unknown origin).

A short description of series [3]: Tmax in mouse at 10 mg/kg, po. Type of series: ADME, organism-based. The settings on record: in vivo.
Series [4] is described as follows: AUC (0 to infinity) in mouse at 10 mg/kg, po. Type of series: ADME, organism-based. The arrangement: time infinity, route oral, dose 10 mg/kg. Conditions: in vivo.
Series [5] can be described thus: Oral bioavailability in mouse at 10 mg/kg. Type of series: ADME, organism-based. The settings on record: in vivo.
Series [6] deals with T2, CYP3A4 (Homo sapiens, UniProt P08684). The series can be described thus: Inhibition of CYP3A4 (unknown origin) at 10 uM relative to control. Type of series: ADME.
Series [7] has as its target T3, CYP2C8 (Homo sapiens, UniProt P10632).
T3 sequence (P10632 whole entry): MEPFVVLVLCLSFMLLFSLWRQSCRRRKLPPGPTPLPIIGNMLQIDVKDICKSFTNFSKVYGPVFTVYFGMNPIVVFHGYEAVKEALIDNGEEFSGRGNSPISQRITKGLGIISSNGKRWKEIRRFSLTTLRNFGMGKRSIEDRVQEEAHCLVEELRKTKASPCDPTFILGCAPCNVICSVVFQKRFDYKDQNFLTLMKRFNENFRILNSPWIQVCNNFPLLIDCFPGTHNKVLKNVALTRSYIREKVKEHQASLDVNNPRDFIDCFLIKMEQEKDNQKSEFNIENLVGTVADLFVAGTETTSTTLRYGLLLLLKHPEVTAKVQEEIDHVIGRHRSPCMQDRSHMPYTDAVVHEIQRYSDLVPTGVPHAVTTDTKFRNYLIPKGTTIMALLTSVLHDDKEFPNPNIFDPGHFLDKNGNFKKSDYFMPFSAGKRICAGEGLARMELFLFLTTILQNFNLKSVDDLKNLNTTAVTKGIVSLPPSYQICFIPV
The experiment in a line: Inhibition of CYP2C8 (unknown origin) at 10 uM relative to control. The class given is ADME.

Series [8] is described as follows: Initial plasma concentration in mouse at 1 mg/kg, iv. The class given is ADME, organism-based.
Series [9] can be described thus: Aqueous solubility of the compound in pH 1.2 JP1 fluid. The class given is physicochemical.
Series [10] is described as follows: Apparent permeability in MDCK cells. Type of series: ADME, cell-based, Canis lupus familiaris. The settings on record: dog.
The nature of series [11]: Volume of distribution at steady state in mouse at 1 mg/kg, iv. Type of series: ADME, organism-based. The settings on record: in vivo, read-out: Vdss.
Series [12] is described as follows: Metabolic stability in human liver microsomes assessed as compound remaining at 0.5 mg/mL incubated for 0.5 hrs. The class given is ADME, Microsome. The settings on record: read-out: Stabilty.
Series [13] is described as follows: Half-life in mouse at 1 mg/kg, iv. The class given is ADME, organism-based. Conditions: in vivo.
The target in series [14] is hERG (KCNH2) (Homo sapiens, UniProt Q12809). The series can be described thus: Inhibition of human ERG at 10 uM relative to control.
Series [15] is described as follows: Lipophilicity, log D of compound. The settings on record: octanol/water. Type of series: physicochemical.
Series [16] has as its target T2, CYP3A4. The experiment in a line: Mechanism based inhibition of CYP3A4 in human liver microsome assessed as remaining percentage at 100 uM in presence of substrate ACN preincubated 30 mins followed by substrate addition relative to control. Type of series: ADME. The settings on record: liver microsomes, probe ACN (so in the source), read-out: Activity. In general terms: Liver microsomes are vesicles of endoplasmic reticulum, rich in cytochrome P450 enzymes.

The target of series [17] is CYP2C9 (Homo sapiens, UniProt P11712). The series can be described thus: Inhibition of CYP2C9 (unknown origin) at 10 uM relative to control. Type of series: ADME.

Each structure is given as a SMILES string. ≈ marks a conversion by molar mass, not a printed value.

T2 sequence (P08684 whole entry): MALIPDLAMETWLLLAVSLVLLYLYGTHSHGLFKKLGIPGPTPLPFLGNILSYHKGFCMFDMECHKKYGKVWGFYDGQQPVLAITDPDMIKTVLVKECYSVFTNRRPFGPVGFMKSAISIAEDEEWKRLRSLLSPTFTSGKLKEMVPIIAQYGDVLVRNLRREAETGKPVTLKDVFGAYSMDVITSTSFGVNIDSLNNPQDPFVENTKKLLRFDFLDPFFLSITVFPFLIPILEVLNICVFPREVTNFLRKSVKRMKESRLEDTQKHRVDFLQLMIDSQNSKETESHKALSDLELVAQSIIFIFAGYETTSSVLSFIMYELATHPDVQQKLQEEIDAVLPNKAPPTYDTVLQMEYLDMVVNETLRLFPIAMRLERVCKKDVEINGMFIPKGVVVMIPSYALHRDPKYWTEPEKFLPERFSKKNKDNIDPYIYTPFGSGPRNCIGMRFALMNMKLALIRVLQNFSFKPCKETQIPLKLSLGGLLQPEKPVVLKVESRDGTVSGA
CYP2C9, sequence (P11712 whole entry): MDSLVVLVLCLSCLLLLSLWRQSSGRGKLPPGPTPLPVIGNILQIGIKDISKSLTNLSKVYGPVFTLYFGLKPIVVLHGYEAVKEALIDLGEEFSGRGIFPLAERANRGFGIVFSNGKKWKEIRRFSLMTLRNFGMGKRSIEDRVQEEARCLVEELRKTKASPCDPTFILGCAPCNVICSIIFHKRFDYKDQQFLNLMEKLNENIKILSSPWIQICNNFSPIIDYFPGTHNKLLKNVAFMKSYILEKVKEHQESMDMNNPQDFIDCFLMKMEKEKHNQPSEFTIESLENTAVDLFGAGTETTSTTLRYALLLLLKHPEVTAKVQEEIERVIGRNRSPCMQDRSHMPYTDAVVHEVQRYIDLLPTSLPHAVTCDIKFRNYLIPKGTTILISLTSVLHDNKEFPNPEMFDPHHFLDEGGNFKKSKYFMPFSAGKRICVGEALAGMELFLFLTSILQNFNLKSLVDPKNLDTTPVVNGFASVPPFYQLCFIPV
hERG (KCNH2), sequence (Q12809 whole entry): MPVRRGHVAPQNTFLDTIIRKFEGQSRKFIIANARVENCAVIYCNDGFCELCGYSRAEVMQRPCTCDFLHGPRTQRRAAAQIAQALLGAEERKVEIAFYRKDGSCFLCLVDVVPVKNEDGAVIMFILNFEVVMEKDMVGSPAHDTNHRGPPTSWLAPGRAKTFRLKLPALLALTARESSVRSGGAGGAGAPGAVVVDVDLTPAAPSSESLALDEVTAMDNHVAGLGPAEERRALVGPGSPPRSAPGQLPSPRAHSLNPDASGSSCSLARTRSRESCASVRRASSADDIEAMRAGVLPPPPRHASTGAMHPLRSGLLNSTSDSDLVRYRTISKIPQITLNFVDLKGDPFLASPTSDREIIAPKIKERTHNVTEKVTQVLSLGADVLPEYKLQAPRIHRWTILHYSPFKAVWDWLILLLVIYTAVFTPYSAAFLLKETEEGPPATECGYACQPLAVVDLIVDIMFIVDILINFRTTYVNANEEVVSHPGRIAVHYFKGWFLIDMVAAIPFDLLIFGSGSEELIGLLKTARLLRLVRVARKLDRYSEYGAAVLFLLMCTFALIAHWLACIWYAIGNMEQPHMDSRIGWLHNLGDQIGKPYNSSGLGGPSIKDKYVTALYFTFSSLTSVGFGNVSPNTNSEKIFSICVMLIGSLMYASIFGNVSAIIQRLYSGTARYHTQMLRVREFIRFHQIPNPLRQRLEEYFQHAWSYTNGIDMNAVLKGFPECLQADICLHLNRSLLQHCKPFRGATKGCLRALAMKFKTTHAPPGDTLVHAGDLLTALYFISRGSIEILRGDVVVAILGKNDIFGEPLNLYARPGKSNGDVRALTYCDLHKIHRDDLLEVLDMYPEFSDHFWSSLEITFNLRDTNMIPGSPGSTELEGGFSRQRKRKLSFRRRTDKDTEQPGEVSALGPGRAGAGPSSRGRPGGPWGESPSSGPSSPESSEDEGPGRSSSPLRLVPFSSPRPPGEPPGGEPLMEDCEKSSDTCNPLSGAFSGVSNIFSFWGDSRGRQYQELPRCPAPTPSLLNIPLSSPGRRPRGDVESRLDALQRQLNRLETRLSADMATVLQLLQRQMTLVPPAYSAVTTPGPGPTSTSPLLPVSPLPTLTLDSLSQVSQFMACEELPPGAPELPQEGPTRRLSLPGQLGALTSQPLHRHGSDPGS

A word on the solubility: it is how much of the substance goes into solution per volume. Lower therefore signals a poorly soluble substance. As usually defined, the IC50 is the concentration needed to halve the response being measured. A lower IC50 goes with inhibition by little substance. In general, Tmax refers to the time from dosing to the highest level. The AUC(0-inf) is total exposure, with the tail of the curve extrapolated. In general, bioavailability refers to the share of a dose that reaches the circulation, judged against a reference dose that is usually intravenous. A high value points to good availability. The term inhibition denotes how much of the control response was suppressed. High values mean a strong effect, low ones a weak effect. By Papp is commonly meant a coefficient for how fast a substance crosses the barrier. Usually half-life stands for the time needed for the level to fall by half in the phase considered. A high value points to slow loss. In general, logD refers to lipophilicity at a set pH, counting ionised and neutral species. A higher logD goes with higher lipophilicity. With `CNc1cc(C)nc(Nc2ccc(OC)c(C3=CCNCCC3)c2)n1`, the solubility in [1] came out at 640 µg/mL (≈ 1890 µM); in series [9], 680 µg/mL (≈ 2000 µM). The same molecule gave an IC50 in series [2] of 32.3 nM. Besides, the Tmax in [3] amounted to 2 h. In addition, the AUC(0-inf) in series [4] was 3.15 µM·h. This molecule also returned a bioavailability in series [5] of 40%. Further, the inhibition at 10 µM in [6] is 0%; in series [7] it was 0%; in [14], 1%; in series [17], 0%. The C0 in series [8] is 400 nM. Also, the Papp in series [10] was 1.4 ×10⁻⁶ cm/s. Further, in series [11], the Vd came out at 24.6 L/kg. The remaining at 0.5 h in series [12] was 96%. Further, the half-life in [13] was 7 h. Further, the logD in series [15] was found to be 0.5. Further, the activity at 30 min, 100 µM in series [16] was 80.5%.
Consider `CNc1cc(C)nc(Nc2ccc(OC)c(OCCCN3CCCC3)c2)n1`, for which the solubility in series [1] was determined as 590 µg/mL (≈ 1590 µM); in [9] it was 740 µg/mL (≈ 1990 µM). Besides, the IC50 in series [2] stood at 185 nM. Further, the Tmax in series [3] is 5.5 h. Moreover, the AUC(0-inf) in series [4] is 2.86 µM·h. Also, the bioavailability in series [5] was 17%. Also, the inhibition at 10 µM was 8% in series [6], 2% in series [7], 42% in series [14] and 0% in series [17]. The molecule also gave a C0 in series [8] of 260 nM. In addition, the Papp in [10] came to 3.1 ×10⁻⁶ cm/s. Moreover, the Vd in series [11] was determined as 8.3 L/kg. The remaining at 0.5 h in [12] was 99%. Moreover, the half-life in series [13] was 4 h. Moreover, the logD in series [15] was 0.8. The activity at 30 min, 100 µM in series [16] was determined as 93.6%.
